From patent publication US6555574B1, “4-oxybenzopyran derivative” (Nissan Chemical Industries, Ltd., priority 1999, dated 2003)

Row | SMILES | melting point
1 | CCCO[C@H]1c2cc(NC(=O)Cc3ccc(OC)cc3)c([N+](=O)[O-])cc2OC(C)(C)[C@@H]1O (relative stereo) [Synthesis example 4, (3R*, 4S*)-3,4-dihydro-2,2-dimethyl-4-propoxy-6-(4-methoxyphenylacetylamino)-7-nitro-2H-1-benzopyran-3-ol] | 115 to 116 °C
2 | COc1ccc(CC(=O)Nc2cc3c(cc2[N+](=O)[O-])OC(C)(C)[C@H](O)[C@H]3Oc2ccccc2)cc1 (relative stereo) [Synthesis example 7, Trans-3,4-dihydro-2,2-dimethyl-6-(4-methoxyphenyl)acetylamino-7-nitro-4-phenyloxy-2H-1-benzopyran-3-ol] | 178 to 178.6 °C
3 | COc1ccc(CC(=O)Nc2cc3c(cc2[N+](=O)[O-])OC(C)(C)[C@H](O)[C@H]3OCCc2ccccc2)cc1 [Synthesis example 6, Trans-3,4-dihydro-2,2-dimethyl-6-(4-methoxyphenyl)acetylamino-7-nitro-4-(2-phenylethoxy)-2H-1-benzoypyran-3-ol] | 125.2 to 125.5 °C
4 | COc1ccc(CC(=O)Nc2cc3c(cc2[N+](=O)[O-])OC(C)(C)[C@H](O)[C@H]3OCc2ccccc2)cc1 [Synthesis example 8] | 117.8 to 119.1 °C
